{"source": "paper PMC5413018", "about": "“Neuropeptide S (NPS) variants modify the signaling and risk effects of NPS Receptor 1 (NPSR1) variants in asthma” (PLoS ONE, 2017)", "key": {"[1]": {"test_system": "NPSR1", "conditions": "cited from earlier work", "from_the_text": "To compare the bioactivities of the two NPS variants, we measured the dose-responses of NPSR1-Ile(107) and NPSR1-Asn(107) coding variants to either wildtype NPS-Val(6) or alternative NPS-Leu(6) in a luciferase assay dependent on the activation of a cAMP-response element (CRE). This assay was used since elevation of the intracellular cAMP levels activates cAMP response element binding protein (CREB) via […]. Activated CREB binds to CRE and induces the expression of downstream target ..."}, "[2]": {"test_system": "chemotaxis", "conditions": "cited from earlier work", "from_the_text": "(§1) In our cells assays, the magnitude of the mRNA expression of NR4A1 was clearly dependent on the combination of NPS and NPSR1 variants (Fig 2). NR4A1 is expressed in lymphocytes upon stimulation and is anti-inflammatory. NR4A1 has been recently described as a key regulator of catecholamine production by macrophages linking sympathetic stress response and inflammation ..."}, "[3]": {"test_system": "phagocytosis", "conditions": "cited from earlier work", "from_the_text": "as §1"}, "[4]": {"test_system": "NPSR1-Ile(107)", "conditions": "cell models; cited from earlier work", "from_the_text": "The functional NPSR1 SNP rs324981 (A>T), encoding a substitution of Asn(107)Ile in the putative ligand-binding pocket of NPSR1 [5], has shown associations with neuropsychiatric phenotypes, such as panic disorders, psychological stress, and fear responses. […] In cell models, the change of Asn(107) to Ile(107) results in 10-fold increase in NPS-mediated intracellular sign ... || A key strength of this study is the use of robust in vitro cell assays that allowed us to dissect the functional effects of coding NPS/NPSR1 variants on receptor signaling and downstream gene expression. Our cell assays confirmed that stimulation of cells transfected with either NPSR1-Asn(107) or NPSR-Ile(107) with the wildtype NPS-Val(6), induced CRE activity as described previously."}, "[5]": {"biological_target": "T1, NPSR1-Ile(107) (Homo sapiens, UniProt Q6W5P4, N107I)", "T1 sequence (Q6W5P4 1-371 N107I)": "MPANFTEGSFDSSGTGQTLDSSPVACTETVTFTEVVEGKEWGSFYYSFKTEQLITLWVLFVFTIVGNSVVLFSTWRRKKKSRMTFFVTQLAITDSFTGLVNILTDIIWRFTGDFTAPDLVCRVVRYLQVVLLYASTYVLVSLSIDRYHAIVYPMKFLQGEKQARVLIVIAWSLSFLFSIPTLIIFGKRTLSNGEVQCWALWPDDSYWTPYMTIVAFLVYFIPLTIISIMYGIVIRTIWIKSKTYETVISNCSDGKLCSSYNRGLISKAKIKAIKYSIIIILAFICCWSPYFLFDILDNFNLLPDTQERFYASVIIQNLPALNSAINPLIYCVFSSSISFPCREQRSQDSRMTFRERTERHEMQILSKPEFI", "assay": "Real-time RT-PCR of downstream target genes in SH-SY5Y cells stably overexpressing NPSR1-Ile(107)", "assay_type": "cell-based", "design": "expressed in transfected cells", "conditions": "SH-SY5Y over-expressing NPSR1-Ile(107), 0.0001–1 μM, 3 h, dose dependent", "experimental": "Fig 2 Real time RT-PCR analysis of NPSR1 downstream target genes. (A) Time-dependent mRNA expression of NR4A1, FOS, CXCL2, and CCL20 in human embryonic kidney epithelial (HEK293) cells transiently transfected with either NPSR1-Ile(107) or NPSR1-Asn(107) coding variants and stimulated with either NPS-Val(6) or NPS-Leu(6) NPS (100 nM) for 1, 3, 6, and 24 h. (B) Dose-response curves of NR4A1, FOS, IER3, and EGR1 in human SH-SY5Y stable cell line over-expressing NPSR1-Ile(107) stimulated with either NPS-Leu(6) or NPS V6 (0.0001–1 μM) for 3 h. The results are presented as fold-changes in comparison to the unstimulated cells. GAPDH was used as the endogenous reference, and data are expressed as mean of triplicate samples. […] In all experiments, results were calculated with the comparative Ct method.\nAltered neuroinflammatory mechanisms have been implicated in allergic airway inflammation. […] SH-SY5Y cells stably overexpressing NPSR1-Ile(107) were stimulated with either NPS-Leu(6) or NPS-Val(6) (0.0001–1 μM) for 3 h and the mRNA expression of known downstream target genes in these cells was detected using RT-PCR. […] These observations validated the results detected in HEK293 cells in an independent cell line.\nThe stable NPSR1-A-GFP expressing SH-SY5Y cells were engineered and cultured as described before. […] The changes in gene expression were analyzed with real-time PCR (RT-PCR). […]"}}, "data": [{"substance": "Neuropeptide S (SFRNGVGTGMKKTSFQRAKS; Neuropeptide S; UniProt P0C0P6 70-89, looked up) [NPS, Neuropeptide S, variant not specified at the place]", "values": [{"measurement": "cAMP production on NPSR1 activation (in words)", "setting": "[1]", "result": "increasing cAMP production"}, {"measurement": "effects on chemotaxis (in words)", "setting": "[2]", "result": "direct effects"}, {"measurement": "effects on phagocytosis (in words)", "setting": "[3]", "result": "direct effects"}, {"measurement": "increase in NPS-mediated intracellular signaling on change of Asn(107) to Ile(107)", "setting": "[4]", "result": 10, "unit": "fold"}, {"measurement": "mRNA expression of NR4A1, FOS, EGR1 and IER3 (in words)", "setting": "[5]", "result": "increased"}]}]}
